Numbers after ± are expanded uncertainties.
Columns and labels:
[1] = Molar enthalpy of transition or fusion; conditions: Crystal; DSC
[2] = for Normal melting temperature: Crystal, DTA; for vapor or sublimation pressure: Liquid, Determined from thermal gravimetric analysis data
[3] = Boiling temperature at pressure P; conditions: 94.4 kPa; Liquid; DSC

Structure (SMILES): [O-][n+]1ccccc1S [2-mercaptopyridine N-oxide]
- Molar enthalpy of transition or fusion [1]: 3.18 ± 0.932 kcal/mol
- Normal melting temperature [2]: 71.20 ± 5.2 °C

Structure (SMILES): Cc1cc(C)c[n+]([O-])c1 [3,5-dimethylpyridine N-oxide]
- Boiling temperature at pressure P [3]: 291.70 ± 6 °C
- Molar enthalpy of transition or fusion [1]: 2.96 ± 0.311 kcal/mol
- Normal melting temperature [2]: 101.30 ± 4.4 °C

Structure (SMILES): [O-][n+]1cccc(O)c1 [3-hydroxypyridine-N-oxide]
- Molar enthalpy of transition or fusion [1]: 4.5 ± 1.22 kcal/mol
- Normal melting temperature [2]: 189.70 ± 6.2 °C

Structure (SMILES): Cc1ccc[n+]([O-])c1 [3-picoline N-oxide]
- Boiling temperature at pressure P [3]: 283.80 ± 12 °C
- Molar enthalpy of transition or fusion [1]: 2.52 ± 0.502 kcal/mol
- vapor or sublimation pressure ([2]; 433.15 K): 4.26 ± 1.1 kPa
- vapor or sublimation pressure ([2]; 435.15 K): 4.48 ± 1.1 kPa
- vapor or sublimation pressure ([2]; 440.15 K): 5.4 ± 1.2 kPa
- vapor or sublimation pressure ([2]; 443.15 K): 5.93 ± 1 kPa
- vapor or sublimation pressure ([2]; 445.15 K): 6.29 ± 1.3 kPa
- vapor or sublimation pressure ([2]; 447.15 K): 6.89 ± 1 kPa
- vapor or sublimation pressure ([2]; 450.15 K): 7.47 ± 0.67 kPa
- vapor or sublimation pressure ([2]; 453.15 K): 8.23 ± 1.1 kPa
- vapor or sublimation pressure ([2]; 455.15 K): 8.91 ± 0.95 kPa
- vapor or sublimation pressure ([2]; 457.15 K): 9.28 ± 1.2 kPa
- vapor or sublimation pressure ([2]; 460.15 K): 10.15 ± 1.1 kPa
- vapor or sublimation pressure ([2]; 463.15 K): 10.93 ± 1.1 kPa
- vapor or sublimation pressure ([2]; 465.15 K): 11.69 ± 1.1 kPa
- vapor or sublimation pressure ([2]; 467.15 K): 12.28 ± 1.1 kPa
- vapor or sublimation pressure ([2]; 470.15 K): 13.42 ± 1.1 kPa
- vapor or sublimation pressure ([2]; 473.15 K): 14.64 ± 1.4 kPa
- vapor or sublimation pressure ([2]; 475.15 K): 15.17 ± 1.4 kPa
- vapor or sublimation pressure ([2]; 477.15 K): 16.14 ± 1.3 kPa
- vapor or sublimation pressure ([2]; 480.15 K): 17.37 ± 1.4 kPa
- vapor or sublimation pressure ([2]; 483.15 K): 18.4 ± 1.4 kPa
- vapor or sublimation pressure ([2]; 485.15 K): 19.19 ± 1.5 kPa
- vapor or sublimation pressure ([2]; 487.15 K): 20.28 ± 1.8 kPa
- vapor or sublimation pressure ([2]; 490.15 K): 21.69 ± 2.1 kPa
- vapor or sublimation pressure ([2]; 493.15 K): 23.24 ± 2.5 kPa
- vapor or sublimation pressure ([2]; 495.15 K): 24.75 ± 3 kPa
- vapor or sublimation pressure ([2]; 497.15 K): 25.56 ± 3.2 kPa
- vapor or sublimation pressure ([2]; 500.15 K): 27.36 ± 3.9 kPa
- vapor or sublimation pressure ([2]; 503.15 K): 29.43 ± 4.5 kPa
- vapor or sublimation pressure ([2]; 505.15 K): 31 ± 5.4 kPa
- vapor or sublimation pressure ([2]; 507.15 K): 32.53 ± 6 kPa
- vapor or sublimation pressure ([2]; 510.15 K): 35.18 ± 7.1 kPa
- vapor or sublimation pressure ([2]; 513.15 K): 37.62 ± 8 kPa
- vapor or sublimation pressure ([2]; 515.15 K): 38.66 ± 8.5 kPa
- vapor or sublimation pressure ([2]; 517.15 K): 40.64 ± 8.8 kPa
- Normal melting temperature [2]: 37.10 ± 8.2 °C

Structure (SMILES): O=C(O)c1ccc[n+]([O-])c1 [3-pyridinecarboxylic acid N-oxide]
- Molar enthalpy of transition or fusion [1]: 5.63 ± 0.956 kcal/mol
- Normal melting temperature [2]: 258.30 ± 4.6 °C

Structure (SMILES): Cc1cc[n+]([O-])cc1 [4-methylpyridine-N-oxide]
- Boiling temperature at pressure P [3]: 287.30 ± 6.8 °C
- Molar enthalpy of transition or fusion [1]: 4.51 ± 0.884 kcal/mol
- Normal melting temperature [2]: 184.60 ± 4.8 °C

Structure (SMILES): O=[N+]([O-])c1cc[n+]([O-])cc1 [4-nitropyridine N-oxide]
- Molar enthalpy of transition or fusion [1]: 4.18 ± 1.03 kcal/mol
- Normal melting temperature [2]: 160.80 ± 5 °C

Structure (SMILES): O=C(O)c1cc[n+]([O-])cc1 [4-pyridinecarboxylic acid N-oxide]
- Molar enthalpy of transition or fusion [1]: 5.76 ± 1.53 kcal/mol
- Normal melting temperature [2]: 268.50 ± 4.4 °C

Structure (SMILES): O=C(O)c1ccccc1 [benzoic acid]
- Normal melting temperature [2]: 121.60 ± 1.1 °C

Structure (SMILES): NC(=O)c1ccc[n+]([O-])c1 [nicotinamide N-oxide]
- Normal melting temperature [2]: 289.50 ± 7.8 °C

Structure (SMILES): O=C(O)c1cccc[n+]1[O-] [picolinic acid N-oxide]
- Boiling temperature at pressure P [3]: 267.60 ± 10 °C
- Molar enthalpy of transition or fusion [1]: 7.21 ± 3.11 kcal/mol
- Normal melting temperature [2]: 163.80 ± 5.4 °C

Structure (SMILES): [O-][n+]1ccccc1 [pyridine N-oxide]
- Boiling temperature at pressure P [3]: 267.60 ± 29 °C
- Molar enthalpy of transition or fusion [1]: 2.31 ± 0.932 kcal/mol
- vapor or sublimation pressure ([2]; 425.15 K): 2.5 ± 0.55 kPa
- vapor or sublimation pressure ([2]; 427.15 K): 2.66 ± 0.54 kPa
- vapor or sublimation pressure ([2]; 433.15 K): 3.33 ± 0.59 kPa
- vapor or sublimation pressure ([2]; 435.15 K): 3.59 ± 0.64 kPa
- vapor or sublimation pressure ([2]; 440.15 K): 4.28 ± 0.73 kPa
- vapor or sublimation pressure ([2]; 443.15 K): 4.86 ± 1 kPa
- vapor or sublimation pressure ([2]; 445.15 K): 5.22 ± 0.9 kPa
- vapor or sublimation pressure ([2]; 447.15 K): 5.5 ± 0.9 kPa
- vapor or sublimation pressure ([2]; 450.15 K): 6.19 ± 0.99 kPa
- vapor or sublimation pressure ([2]; 453.15 K): 6.84 ± 1.1 kPa
- vapor or sublimation pressure ([2]; 455.15 K): 7.36 ± 1.1 kPa
- vapor or sublimation pressure ([2]; 457.15 K): 7.89 ± 2.3 kPa
- vapor or sublimation pressure ([2]; 460.15 K): 8.88 ± 1.4 kPa
- vapor or sublimation pressure ([2]; 463.15 K): 9.76 ± 1.6 kPa
- vapor or sublimation pressure ([2]; 465.15 K): 10.41 ± 1.6 kPa
- vapor or sublimation pressure ([2]; 467.15 K): 11.15 ± 1.7 kPa
- vapor or sublimation pressure ([2]; 470.15 K): 12.44 ± 2 kPa
- vapor or sublimation pressure ([2]; 473.15 K): 13.57 ± 2.1 kPa
- vapor or sublimation pressure ([2]; 475.15 K): 14.4 ± 2.3 kPa
- vapor or sublimation pressure ([2]; 477.15 K): 15.28 ± 2.4 kPa
- vapor or sublimation pressure ([2]; 480.15 K): 16.58 ± 2.6 kPa
- Normal melting temperature [2]: 63.80 ± 8.2 °C

Structure (SMILES): [O-][n+]1cccc2ccccc21 [quinoline 1-oxide]
- Molar enthalpy of transition or fusion [1]: 2.45 ± 0.382 kcal/mol
- Normal melting temperature [2]: 55.40 ± 4.4 °C

Source: the NIST ThermoML archive (doi:10.1016/j.jct.2019.04.014)
